According to patent publication US20190231847A1, “TREATMENT OF OCULAR DISEASE” (priority 2016, published 2019):

Columns and labels:
Assay type in all cases: in vivo
[1] = system: neovascularisation induced by sutures in the cornea; assay: Rat corneal suture model, Example 1 (blinded grading at day 6, images)
Experimental: To assess the action of ALM201 (SEQ ID NO:3) on the ocular surface, the ability to halt vessel growth was measured. Vessel growth was stimulated through a well-accepted model (Shi et al., 2011) whereby a suture was placed in the central cornea of rat eyes (FIG. 1). We have shown the rat eye is similar anatomically to the human eye (Moore J E, McMullen C B, Mahon G and Adamis A P. The corneal epithelial stem cell. DNA Cell Biol. 2002; 21(5-6):443-51; incorporated herein by reference).
The experimental groups were: • Subconjunctival injection of peptide (5 rats), control group (5 rats) and positive control group (5 rats) • Intrastromal injection of peptide (5 rats), control group (5 rats) and positive control group (5 rats) • Topical application of peptide (5 rats), control group (5 rats) and positive control group (5 rats)
A suture was placed in the central cornea of one eye of each animal while the control eye remained untouched. For the injection groups, peptide was added to the rat's eyes at day 0, day 3, and day 6. For the topical application group, peptide and the positive control was added daily. Each day after suture, rats were monitored for vessel growth and photographed using a Hawk Eye Portable Digital Slit Lamp (Dioptrix, France) and inverted microscope (Nikon's E600FN; Surrey, UK). At a time point when a difference is noted (e.g. day 6) between untreated and peptide treated animals, they received 8 μg/g tail vein injections of an endothelial-specific fluorescein-conjugated lectin (Lycopersicon esculentum; Vector Laboratories, Burlingame, Calif.). Thirty minutes later, the eyes were harvested and fixed with 10% neutral buffered formalin for 24 hours. The corneas were isolated and flat-mounted on glass slides. The fluorescence in the perfused vessels was captured using a Leica SP5 multiphoton microscope (Milton Keynes, UK). Vessel formation within tagged information file format (.tiff) files was measured by visualization with Image J (Rasband, 1997-2014).
At day 6 all rats were graded by an opthalmologist blinded to the treatment. Grading scales were as follows:
Vessel distance from suture: 0=no reach; 1=small distance; 2=moderate distance; 3=¾ of the way; 4=reached sutures;
Vessel density grading: 0=no density; 1=mild; 2=moderate; 3=high Inflammation grading: 0=none; 1=minimal; 2=moderate; 3=severe;

[2] = system: cell infiltrate, corneal swelling and blood vessels; assay: H&E staining of sutured rat corneas, Example 4
Experimental: (§1) Approximately 24 hours after the last treatment the eyes were imaged and clinically scored. The sutured eyes were scored based on vessel density, vessels distance to suture and inflammation. Vessel density was scored out of three, 0=no density, 1=mild, 2=moderate, 3=high. Vessels distance to suture was scored out of four, 0=no reach, 1=small distance, 2=moderate distance, 3=¾ of the way, 4=reached sutures and inflammation was scored out of three, 0=none, 1=minimal, 2=moderate, 3=severe. After clinical scoring the eyes were enucleated, tissue processed, wax embedded and cut into 5 μm sections while taking care to find the sutured area. Sections were stained with haematoxylin and eosin (H&E) to confirm suture location in each eye and adjacent slides were then used for immunohistochemistry to identify CD44+ cells and FKBPL expression as well NFκB and p-IκBα.
(§2) Sections (5 μm) were stained with haematoxylin and eosin (H&E) to confirm suture location in each eye. Adjacent slides were then used for immunohistochemistry to identify, CD44+ cells and FKBPL expression.

[3] = system: infiltrated cells and CD68+ cells in sutured cornea; assay: Histological analysis (H&E, CD68+) of sutured rat eyes, Example 3; conditions: topical ALM201, day 6 after suture and treatment
Experimental: FIG. 11 Histological analysis by haematoxylin and eosin (H&E) staining showing increased infiltration of cells in control samples (PBS or dexamethasone) compared to treated samples (ALM201, 1 μM or 100 μM) at day 6 after suture and treatment. (A) Haematoxylin and eosin stained sections for each of the experimental groups. White arrows indicate sutures and black arrows show blood vessels (scale bar=500 μm). […] (B) The number of total infiltrated cells and (C) number of CD68+ infiltrated cells in each experimental group was quantitated, with higher numbers of infiltrated cells present in the control group compared to the peptide treated group.
On day 0, sutures where placed into the cornea of rats to induce corneal neovascularisation and inflammation. The eyes were treated for 3 days or 6 days with 16 μl of ALM201 (100 nM and 100 μM) or PBS (vehicle control).
Eyes were enucleated on the 3rd or 6th day one hour after treatment and frozen in gelatine.
Cross sections (10 μm) were taken at the centre of the eye for MSI, adjacent sections were stained with haematoxylin and eosin (H&E).

[4] = system: p-IκBα; assay: Immunohistochemistry of p-IκBα expression in rat cornea; conditions: 1 μM ALM201
Experimental: as §1
NFκB and phosphorylated-IκBα antibodies were also used in this experiment to see if ALM201 affected the NFκB pathway. Nuclear factor kappa-light-chain-enhancer of B cells or NFκB is a transcription factor which is involved in several processes including inflammation, B cell development, apoptosis, immune regulation and cell proliferation. There are 5 different NFκB heterodimers in the NFκB family, depending on which heterodimer is activated they can activate or repress the transcription of the above process. […]

[5] = system: CD44; assay: Immunohistochemistry staining for CD44 in rat cornea; conditions: sutured corneas, 1 μM ALM201
Experimental: as §1, §2

[6] = system: FKBPL; assay: Immunohistochemistry of FKBPL in rat cornea; conditions: 1 μM ALM201
Experimental: as §1, §2

[7] = system: neovascularisation and inflammation in the injured cornea; assay: ALM201 concentration titration in rat corneal suture model, clinical scoring, Example 4; conditions: for Vessel density, clinical score compared to PBS control group / Inflammation scoring in comparison to PBS treated group: scored day 7
Experimental: Each rat was anesthetised and two 10-0 sutures were placed intrastromally into the temporal cornea of the left eye, 1.5 mm from the limbus. The sutures were left in place for the entirety of the experiment. The right eye was kept as a no suture control but given the same treatment as the left eye. Treatment began approx. 24 hours after suture placement and continued once a day for 6 days.
as §1

[8] = once a day for 6 days, ALM201 100 μM

IRQQPRDPPTETLELEVSPDPAS (listed as Homo Sapiens) [ALM201]
Suture-induced neovascularisation in images ([1]; Hooded Lister Rats, 100 nM ALM201, dexamethasone, vs PBS control): absence of neovascularisation | Growth of new blood vessels after corneal damage ([1]; after subconjunctival injection or topical application): prevented growth of new blood vessels | Vessel distance from suture compared to PBS control ([1]; subconjunctival injection day 0, 3, 6, 100 nM ALM201, graded day 6): significant difference of p<0.01 | Vasculature in images (neovascularisation induced by sutures) ([1]; subconjunctival injection, 100 nM ALM201, Triamcinolone positive control): normal vasculature | Vasculature in images (neovascularisation induced by sutures) ([1]; topical treatment, daily): normal vasculature | Vessel density compared to PBS control ([1]; topical treatment, daily): significantly different | Anti-inflammatory activity ([1]; when injected): had anti-inflammatory activity when injected | Cell infiltrate, corneal swelling and blood vessels (H&E) ([2]; ALM201 0.01 μM to 10 μM): decreased as the ALM201 concentration was increased | Corneal swelling (H&E) ([2]; ALM201 100 μM): more corneal swelling was observed | CD68+ cell infiltrates compared to PBS-treated and dexamethasone-treated animals [3]: reduced | Neovascularisation in histological analysis compared to controls [3]: decreased neovascularisation | Total cell infiltrates compared to PBS-treated and dexamethasone-treated animals [3]: reduced total cell infiltrates | p-IκBα expression compared to PBS treated sutured corneas ([4]; sutured corneas): reduced | p-IκBα expression ([4]; unsutured corneas): no expression of p-IκBα | CD44 expression compared to sutured PBS control [5]: decrease in CD44 expression | FKBPL expression in the corneal epithelium and stroma in comparison with PBS treated sutured corneas and normal corneas [6]: increased | Inflammation and vessel density scores compared with dexamethasone ([7]; ALM201 100 μM): significant difference in scores | Vessel density, clinical score compared to PBS control group ([7]; once a day for 6 days, ALM201 1 μM, dexamethasone positive control): significant decrease | Vessel density, clinical score compared to PBS control group ([7]; once a day for 6 days, ALM201 10 μM): significant decrease | Inflammation scoring in comparison to PBS treated group ([7]; once a day for 6 days, ALM201 10 μM, dexamethasone positive control): significant difference | Inflammation scoring in comparison to PBS treated group [7, 8]: significant difference | Vessel density, clinical score compared to PBS control group [7, 8]: significant decrease | Vessel distance to sutures, clinical score compared to PBS vehicle control ([7]; once a day for 6 days, scored day 7 after suture, ALM201 1 μM, dexamethasone positive control): significantly different | Most effective concentrations in preventing angiogenesis and inflammation ([7]; titration 0.01 μM to 100 μM): 1 µM and 10 µM
